In patent publication US5030012A, “Pyroelectric calorimeter” (The United States of America as represented by the …, priority 1990, dated 1991):

Tests used:
[1] = test system: dark-adapted bullfrog retinas (rods); assay: Pyroelectric calorimetry and transretinal voltage of flash-stimulated dark-adapted retinas; format: cell-based, bullfrog (R. catesbiana)
Method: Dark-adapted bullfrog (R. catesbiana) retinas, removed under infrared illumination, were stored for 10 min to 1 hr in an oxygenated bath containing (in mM) Na^+ : 100, K^+ : 2.7, Ca^++ : 1.4, Mg^++ : 0.5, phosphate: 0.5, HEPES: 10, glucose: 11, EDTA: 0.01, pH 7.1. Cl^- was the main anion. Disks 6.3 mm. across were cut from a retina and attached by their vitreal surfaces to 25 μm. thick nylon mesh (Small Parts, Ltd., Miami, Fla.) disks of the same diameter.
Before use, each disk was soaked for 5 min in a medium containing 10 mM glutamate and 5 mM cysteine to suppress electrical responses from all retinal cells except the rods, cones and glial Muller cells. Using an infrared viewer, the disks were placed on the detector with receptor layer down and excess fluid was blotted away. Flowing moist oxygen replaced the atmosphere every 2 m.
6 μs flashes of spectral width 70 nm. centered at 500, 550 or 640 nm. from a Xenon flash tube were attenuated by a circular graded wedge and fed via a light pipe whose end was projected to a 6 mm circle at the retina. A computerized stepping motor turned the wedge so that flashes of varying intensity could be quickly delivered. The light input at the retina was measured with a silicon photovoltaic diode (International Light, Inc., Newburyport, Mass.). Exposures of the OS were calculated for a rod density in the retinal mosaic of 1.76×10^6 cm^-2. Cone and green rod pigments were neglected and rod porphyropsin was lumped with rhodopsin. Assuming the quantum efficiency of rhodopsin photoisomerization to be 0.6 and its molar absorbance at 550 nm to be 2.0×10^4 M^-1 cm^-1, its isomerization cross section ZR was 4.6×10^-17 cm^2.
In retinas incubated in glutamate Ringer containing […] and a ql of 1-2 μK followed by steady cooling lasting for more than 20 s. or until the dark current resumed. A second flash while the dark current was suppressed (as judged by the absence of change in Vr) gave no ql and no change in rl. In 30 experiments, Vr responses, whose amplitudes corresponded to dark currents of 20-50 pA/rod, were accompanied by ql bursts of 0.8 to 2 μK (mean ±s.e.e.: 1.09±0.05, n=24) while rl varied from -2 to -5 μKs^-1.
ql was unchanged by several agents that suppressed the dark current and changed rl. In this regard, the effects of flashes causing 180 PI/rod on retinal temperature and transretinal voltage were studied with an average of 2-4 trials with 60 s intervals between flashes, during which ql recovered. 30 mM ca^++ in the incubation fluid reduced Vr sixfold and changed rl 's sign while ql remained […] (n=4) μK. […] Nevertheless, a 180 PI/OS flash produced a ql of 1.6±0.1 (n=3) μK and rl of 4 μK/s.

[2] = target: cGMP-induced cationic conductance of rod outer segment membrane patches; conditions: cited from earlier work

## C[C@@H]1O[C@@H](O[C@H]2C[C@@H](O)[C@]3(CO)[C@H]4[C@H](O)C[C@]5(C)[C@@H](C6=CC(=O)OC6)CC[C@]5(O)[C@@H]4CC[C@]3(O)C2)[C@H](O)[C@H](O)[C@H]1O [ouabain]
[1]; 50 μM ouabain, 10 m. incubation
  Vr (transretinal voltage response): no Vr
[1]; 50 μM ouabain, 180 PI/OS flash
  rl (steady heat flux): 4 μK/s
[1]; 50 μM ouabain, 180 PI/OS flash, n=3
  ql (fast heat burst): 1.6±0.1 μK

## c1c[nH]cn1 [imidazole]
[1]; 20 mM imidazole in incubation medium, n=3
  ql (fast heat burst): 2.4±0.4 μK

## CC(C)Cn1c(=O)n(C)c(=O)c2[nH]cnc21 [IBMX]
[1]; 500 IBMX, 180 PI/rod
  Vr (transretinal voltage response): suppressed
  ql (fast heat burst): suppressed
[1]; 500 IBMX, tenfold brighter flashes
  Vr (transretinal voltage response): slow Vr waves
[1]; 500 IBMX, tenfold brighter flashes, n=6
  ql (delayed heat): 2.1±0.1 μK

## Nc1nc2c(ncn2[C@@H]2O[C@@H]3COP(=O)(O)O[C@H]3[C@H]2O)c(=O)[nH]1 [cGMP]
[2]; membrane patch conductance vs free [cGMP], various studies, read-out: dissociation constant Kc
  Kd: 10 to 42 µM
[2]; outer segment membranes
  concentration at which the cationic conductance of outer segment membranes increases rapidly and reversibly: > 5 µM
